Experimental data published in patent US20060106102A1, “Napththalene derivatives which inhibit the cytokine or biological activity of microphage migration inhibitory factor (mif)” (priority 2002, published 2006).
Where a name gives a salt, the structure may show the parent alone. Read-outs that look alike come from different tables or passages of the source.

Experiments:
[1] = test system: IL-1-induced COX-2 expression; assay: IL-1-induced COX-2 expression in S112 human dermal fibroblasts (MIF-dependent event), flow cytometry; format: cell-based; conditions: for inhibition at 1 µM: compound 1 uM
Description: The activity of each compound was studied in a bioassay utilising MIF-dependent activation of human dermal fibroblasts. […] IL-1-induced COX-2 expression is therefore a MIF-dependent event. […] Prior to experimentation, cells were seeded at 10^5 cells/ml in RPMI/0.1% BSA for 18 hours. […] Cells permeabilised with 0.1% saponin were sequentially labelled with a mouse anti-human COX-2 monoclonal antibody and with sheep-anti-mouse F(ab)2 fragment labelled with fluoroscein isothiocyanate. Cellular fluorescence was determined using a flow cytometer. At least 5000 events were counted for each reading, each of which was performed in duplicate, and the results expressed in mean fluorescence intensity (MFI) after subtraction of negative control-labelled cell fluorescence. The effect of each compound was determined by subtracting the IL-1+compound-treated cell MFI from the IL-1-treated cell MFI and expressed as % inhibition. In each case the % inhibition of IL-1-induced COX2 expression is shown as the mean, or mean±SEM where results are available from multiple experiments.

[2] = test system: antigen-specific T cell activation (splenic T lymphocytes from mBSA-immunised mice); assay: antigen-specific (mBSA) activation of splenic T lymphocytes in vitro, 3H-thymidine incorporation; format: cell-based, C57BL6/J mice
Description: After a further seven (7) days mice were killed and spleens collected aseptically into Hanks buffered saline solution (HBSS). A single cell suspension was prepared in Petri dishes by flushing DMEM through the organ using a 26G needle and 2 mL syringe. The resulting cell suspension was centrifuged for 5-7 minutes and supernatant discarded. Erythrocytes were lysed using a solution containing 0.579% NH4Cl, 0.000037% EDTA, and 0.1% NaHCO3 in a 37° C. water bath. Tubes were then filled with DMEM and centrifuged for 5-7 minutes. […] The specific stimulating antigen, mBSA, was then added at 10-50 μg/mL and plates incubated for 30 hours in a 37° C., 5% CO2 incubator. Tritiated^3H-thymidine was then added at a concentration of 0.5 μCi/well for a further 18 hours. Cells were harvested on a Packard cell harvester, and the harvested material added to 750 μL/tube scintillation fluid. Scintillation counts were read on a Wallac beta-emnission counter. […] Further compounds were also tested for their ability to inhibit antigen-specific T cell activation as a marker of the inhibition of the cytokine or biological activity of MIF using this assay.

[3] = Homo sapiens, Fibroblast, IL-1 0.1 ng/ml, 6 hours, S112 cells, read-out: % inhibition of IL-1-induced COX2 expression (Effect)
[4] = Mus musculus, T-cell, mBSA 10 μg/ml, read-out: EC50 (T cell activation suppressed by 50% compared to vehicle-only-treated cells)
[5] = Mus musculus, T-cell, mBSA 50 μg/ml, read-out: EC50 (T cell activation suppressed by 50% compared to vehicle-only-treated cells)
[6] = Homo sapiens, Fibroblast, compound 50 uM, IL-1 0.1 ng/ml, 6 hours, S112 cells, read-out: % inhibition of IL-1-induced COX2 expression (Effect)

| EC50 [2, 4] | EC50 [2, 5] | SMILES | inhibition at 50 µM [1, 6] | further results |
| --- | --- | --- | --- | --- |
| 72.2 µM | 87.7 µM | O=C(O)c1ccc2cc(O)ccc2c1 [Compound 9, 6-hydroxy-2-naphthanoic acid] |  | inhibition at 1 µM [1, 3]: 7.5% |
| 10 µM | 16.7 µM | CCCCCOS(=O)(=O)c1ccc2cc(O)c(O)cc2c1 [Compound 10, Pentyl 6,7-dihydroxy-2-naphthalenesulfonate] | 27.7% |  |
|  |  | CNc1ccc2cc(S(=O)(=O)O)ccc2c1 [Compound 11, 6-methylamino-2-naphthalene sulphonic acid, sodium salt] |  | inhibition at 25 µM ([1]; Homo sapiens, Fibroblast, 6 h, read-out: % inhibition of IL-1-induced COX2 expression (Effect)): 13.6%; EC50 ([2]; Mus musculus, T-cell, read-out: EC50 (T cell activation suppressed by 50% compared to vehicle-only-treated cells), mBSA 10 μg/ml): 0.02 µM; EC50 ([2]; Mus musculus, T-cell, read-out: EC50 (T cell activation suppressed by 50% compared to vehicle-only-treated cells), mBSA 50 μg/ml): 3.34 µM |
| 10.2 µM | 0.12 µM | O=C(O)c1ccc2cc3c(cc2c1)OCCO3 [Compound 14, 2,3-dihydronaphtho[2,3-b][1,4]dioxine-7-carboxylic acid] | 24.1% |  |
| 51.7 µM | 21.5 µM | COC(=O)c1ccc2cc(O)ccc2c1 [Compound 15, Methlyl-6-hydroxy-2-naphthoate] |  | inhibition at 1 µM [1, 3]: 17.3% |
| 10.8 µM | 0.95 µM | CCCCCCCCCCCCCCCCCCCCOC(=O)c1ccc2cc(O)ccc2c1 [Compound 19] |  | inhibition at 10 µM ([1]; Homo sapiens, Fibroblast, compound 10 uM, IL-1 0.1 ng/ml, 6 hours, S112 cells, read-out: % inhibition of IL-1-induced COX2 expression (Effect)): 7.7% |
| 3.5 µM | > 100 µM | O=C(O)CCCCCOC(=O)c1ccc2cc(O)ccc2c1 [Compound 22] | 11.6% |  |
| 6.4 µM | 1.18 µM | CCOC(=O)c1ccc2cc(O)ccc2c1O [Compound 28, Ethyl 1,6-dihydroxy-2-naphthaote] |  | inhibition at 25 µM ([1]; Homo sapiens, Fibroblast, compound 25 uM, IL-1 0.1 ng/ml, 6 hours, S112 cells, read-out: % inhibition of IL-1-induced COX2 expression (Effect)): 7.8% |
| 12.5 µM | 0.54 µM | CCOC(=O)c1ccc2cc(SC(=O)N(C)C)ccc2c1OC [Compound 33, Ethyl-6-[(dimethylamino)carbonyl]sulfanyl-1-methoxy-2-naphthoate] | 5.3% |  |
| 8.89 µM | 0.22 µM | COC(=O)c1cc2cc(OC)ccc2cc1O [Compound 35, methyl 2-hydroxy-6-methoxy-3-naphthoate] |  |  |
| 49.3 µM | 89.8 µM | COc1ccc2cc(C)c(C(=O)O)cc2c1 [Compound 39, 7-methoxy-3-methyl-2-naphthoic acid: 2-amino-2-methylpropan-1-ol salt] | 13.3% |  |
| 2.57 µM | 8.9 µM | COc1ccc2cc(C)c(C(=O)O)cc2c1Br [Compound 40, 5-bromo-6-methoxy-2-methyl-3-naphthaoic acid] | 8.5% |  |
|  |  | CCCCCNCc1cc2ccc(O)cc2cc1C(=O)O [Compound 43, 6-hydroxy-[2-(1-pentylamino)methyl]-3-naphthoic acid] |  | % inhibition of IL-1-induced COX2 expression (Effect) ([1]; compound 50 uM, IL-1 0.1 ng/ml, 6 hours, S112 cells): 24.10%; EC50 ([2]; mBSA 10 μg/ml, read-out: EC50 (T cell activation suppressed by 50% compared to vehicle-only-treated cells)): 1.85 µM; EC50 ([2]; mBSA 50 μg/ml, read-out: EC50 (T cell activation suppressed by 50% compared to vehicle-only-treated cells)): 41.5 µM |
| 12.7 µM | > 100 µM | COC(=O)c1ccc2ccc(OC)cc2c1 [Compound 44, Methyl 7-methoxy-2-naphthoate ester] | 9.8% |  |
| 14.8 µM | 32.4 µM | COC(=O)c1ccc2ccc(O)cc2c1 [Compound 45, Methyl 7-hydroxy-2-naphanoate ester] |  |  |
|  | 28.1 µM | COC(=O)c1ccc2ccc(O)c([N+](=O)[O-])c2c1 [Compound 46, Methyl 7-hydroxy-8-nitro-2-naphthoate ester] | 9.3% |  |
| 13.1 µM | > 100 µM | COC(=O)c1ccc2c([N+](=O)[O-])c(O)ccc2c1 [Compound 47, Methyl 6-hydroxy-5-nitro-2-naphthoate ester] |  |  |
| 1.01 µM | 11.9 µM | COC(=O)c1ccc2c(N)c(OC)ccc2c1 [Compound 49, Methyl 5-amino-6-methoxy-2-naphthoate ester] |  |  |
|  | 22.3 µM | COc1ccc2cc(C(CCCCCO)C(=O)O)ccc2c1 (stereo not drawn) [Compound 58, 7-hydroxy-2-(6-methoxy-2-naphthyl)heptanoic acid] |  |  |
|  |  | C[C@@H]1C[C@H]2[C@@H]3CCC4=CC(=O)C=C[C@]4(C)[C@@]3(F)[C@@H](O)C[C@]2(C)[C@@]1(O)C(=O)CO [dexamethasone, reference compound] |  | % inhibition (IL-1 induced COX-2 expression) ([1]; Table 2 experiment 2: dexamethasone alone, 10^−9 M): 63.8% |
